According to article PMC4801743 (Journal of enzyme inhibition and medicinal chemistry, 2015):

What was measured:
PHM [1] = settings: cited from earlier work; for Ki: PHM inactivator; for Km: PHM substrate
PHM [2] = target: T1, PHM (Rattus norvegicus, UniProt P14925); test: Inhibition of the PHM-dependent consumption of O2; format: biochemical
T1 sequence (P14925 36-715 isoform P14925-2 limits assumed): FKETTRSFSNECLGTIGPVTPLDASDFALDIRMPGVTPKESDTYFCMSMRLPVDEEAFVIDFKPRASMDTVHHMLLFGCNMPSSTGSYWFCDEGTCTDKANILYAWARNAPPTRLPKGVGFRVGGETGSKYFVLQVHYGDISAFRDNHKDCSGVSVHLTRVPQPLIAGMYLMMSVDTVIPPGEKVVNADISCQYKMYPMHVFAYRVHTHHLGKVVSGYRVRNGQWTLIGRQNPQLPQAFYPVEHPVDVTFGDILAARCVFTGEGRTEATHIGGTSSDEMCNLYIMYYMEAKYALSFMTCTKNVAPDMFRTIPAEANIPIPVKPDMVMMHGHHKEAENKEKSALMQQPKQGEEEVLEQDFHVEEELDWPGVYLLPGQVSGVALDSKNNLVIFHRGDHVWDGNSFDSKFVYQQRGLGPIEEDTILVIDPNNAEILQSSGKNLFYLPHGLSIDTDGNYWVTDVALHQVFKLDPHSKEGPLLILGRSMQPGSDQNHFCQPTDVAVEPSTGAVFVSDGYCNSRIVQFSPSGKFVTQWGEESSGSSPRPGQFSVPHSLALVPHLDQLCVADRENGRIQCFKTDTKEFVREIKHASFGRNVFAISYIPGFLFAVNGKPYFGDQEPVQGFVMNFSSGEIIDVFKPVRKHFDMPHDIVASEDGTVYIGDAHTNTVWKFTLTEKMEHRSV

PHM [3] = target: T1, PHM; test: PHM inactivation by the dilution method; format: biochemical; settings: for Inactivation of PHM (qualitative): dilution method, in the presence of ascorbate and O2; for kinact/KI: pH 6, read-out: (kinact/KI)obs
PHM [4] = target: T1, PHM; test: Tiopronin protection against the cinnamate-mediated inactivation of PHM; format: biochemical; settings: 60 μM tiopronin, 7.5 mM cinnamate, 2 h
P450 = settings: inactivation of P450; cited from earlier work
[5] = test system: dopamine β-monooxygenase (DβM); settings: inactivation of DβM; cited from earlier work

For O=C(O)C/C=C/c1ccccc1 [PBA, trans-4-phenyl-3-butenoate], which Ki (PHM [1]) is on record?
The Ki was 50 µM.

With O=C(O)C=Cc1ccc2c(c1)OCO2 [3,4-Methylenedioxycinnamic acid] as the compound, how does the Ki (PHM [2]) read?
The Ki was 300 ± 40 µM.

With CN(C)c1ccc(C=CC(=O)O)cc1 [N,N-Dimethyl-4-aminocinnamic acid] as the compound, how does the “Inactivation of PHM (qualitative)” value (PHM [3]) read?
The value was “inactivate PHM”.

And the kinact/KI (PHM [3])?
Its kinact/KI is 0.5 M⁻¹ s⁻¹.

For O=C(O)CNC(=O)CCc1ccccc1 [hydrocinnamoylglycine, N-hydrocinnamoylglycine], which Km (PHM [1]) is on record?
The Km was 900 µM.

With CC(S)C(=O)NCC(=O)O (centres unmarked) [tiopronin] as the compound, how does the “Protection of PHM from cinnamate-mediated inactivation” value (PHM [4]) read?
The value was “did protect PHM from inactivation”.

Which results are given for Nc1ccc(C=CC(=O)O)cc1 [4-Aminocinnamic acid]?
Ki (PHM [2]): 500 ± 60 µM; Inactivation of PHM (qualitative) (PHM [3]): inactivate PHM; kinact/KI (PHM [3]): 1 M⁻¹ s⁻¹

With O=C(O)/C=C/C(=O)c1ccccc1 [benzoylacrylate, trans-benzoylacrylate] as the compound, how does the Ki (PHM [1]) read?
Its Ki is 200 µM.

For C=CCC(C(N)=O)C(C)C (centres unmarked) [2-isopropyl-4-pentenamide], which partition ratio (P450) is on record?
The partition ratio was 200–300.

With phenyl(aminomethyl)ethane as the compound, how does the “partition ratio, kcat/kinact” value [5] read?
Its value is 900.

Which Ki (PHM [2]) does the source give for O=C(O)C=Cc1ccccc1C(F)(F)F [2-Trifluoromethylcinnamic acid] here?
The Ki was 200 ± 20 µM.

With CN(C)c1cccc2c(S(=O)(=O)Nc3ccc(C=CC(=O)O)cc3)cccc12 [N-Dansyl-4-aminocinnamic acid] as the compound, how does the “Inactivation of PHM (qualitative)” value (PHM [3]) read?
The value was “inactivate PHM”.

What about the kinact/KI (PHM [3]) of the same compound?
The kinact/KI was 333 M⁻¹ s⁻¹.

And the “(kinact/KI)obs relative to cinnamate” value (PHM [3]; ratio to the (kinact/KI)obs value for cinnamate)?
The value was ~ 500 fold.

Which Km (PHM [1]) does the source give for O=C(O)CNC(=O)C=Cc1ccccc1 [cinnamoylglycine, N-cinnamoylglycine] here?
Its Km is 200 µM.
